Reference: ChEMBL document CHEMBL1135347, “Spirocyclic NK(1) antagonists II: [4.5]-spiroethers” (Bioorg Med Chem Lett, 2002)

Key:
Gerbillinae [1] = test: Ability to inhibit the foot tapping in gerbil immediately following central infusion of GR-73632 (agonist), 5 min after intravenous administration of compound; type: functional; conditions: read-out: ID50 (the source's name)
Substance-P receptor = Substance-P receptor (Homo sapiens, UniProt P25103); test: Displacement of [125I]-labeled substance P from the cloned human Tachykinin receptor 1 expressed in CHO cells; type: cell-based
Mustela putorius furo [2] = test: Compound was tested for inhibition of emetic response in ferret by administering perorally following emetogen challenge after 60 min (po); type: functional
Mustela putorius furo [3] = test: Compound was tested for inhibition of emetic response in ferret by administering intravenously following emetogen challenge after 3 min (iv); type: functional
Gerbillinae [4] = test: Ability to inhibit the foot tapping in gerbil immediately following central infusion of GR-73632 (agonist), 5 min after intravenous administration of compound (1 mg/kg); type: functional
[5] = Bioavailability in rat; type: ADME, organism-based; conditions: in vivo
[6] = Half-life in Dog; type: ADME, organism-based, Canis lupus familiaris; conditions: in vivo
[7] = Bioavailability in dog; type: ADME, organism-based, Canis lupus familiaris; conditions: in vivo
[8] = Half-life in rat; type: ADME, organism-based; conditions: in vivo

Sequence of Substance-P receptor (P25103 whole entry): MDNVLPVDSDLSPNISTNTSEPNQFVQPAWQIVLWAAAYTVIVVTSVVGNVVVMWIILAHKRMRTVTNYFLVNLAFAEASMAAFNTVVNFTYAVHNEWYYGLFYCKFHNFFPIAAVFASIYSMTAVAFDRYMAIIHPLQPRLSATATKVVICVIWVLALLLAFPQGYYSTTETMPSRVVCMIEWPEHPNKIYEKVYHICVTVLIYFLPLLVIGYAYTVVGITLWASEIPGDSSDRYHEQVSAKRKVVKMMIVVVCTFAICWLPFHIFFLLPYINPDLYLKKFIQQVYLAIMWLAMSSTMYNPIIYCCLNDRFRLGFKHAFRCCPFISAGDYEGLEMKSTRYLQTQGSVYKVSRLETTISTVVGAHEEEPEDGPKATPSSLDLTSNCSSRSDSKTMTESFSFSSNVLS

IC50 (Substance-P receptor) [nM] | SMILES | ED50 (Gerbillinae [1]) [mg/kg] | other results
0.08 | COc1ccc(-n2nnnc2C(F)(F)F)cc1C1=CC2(CCCN[C@H]2c2ccccc2)OC1 (stereo not given in full) | 0.1 | 
0.1 | COc1ccc(-n2nnnc2C(F)(F)F)cc1[C@H]1COC2(CCCN(Cc3n[nH]c(O)n3)C2c2ccccc2)C1 (stereo not given in full) |  | Inhibition (Gerbillinae [4]): 6%
49 | COc1ccccc1C1=CC2(CCCNC2c2ccccc2)OC1 (stereo not given) |  | 

Further lines, the compound ahead of its results:

SMILES | IC50 (Substance-P receptor) [nM] | ED50 (Gerbillinae [1]) [mg/kg] | other results
c1ccc([C@H]2COC3(CCCN[C@H]3c3ccccc3)C2)cc1 (stereo not given in full) | 133 |  | 
COc1ccc(OC(F)(F)F)cc1[C@H]1COC2(CCCN[C@H]2c2ccccc2)C1 (stereo not given in full) | 0.3 | 0.3 | ID90 (Mustela putorius furo [2]): 3 mg/kg; ID90 (Mustela putorius furo [3]): 1 mg/kg
COc1ccc(-n2nnnc2C(F)(F)F)cc1[C@H]1COC2(CCCNC2c2ccccc2)C1 (stereo not given in full) | 0.11 | 0.1 | ID90 (Mustela putorius furo [2]): 1 mg/kg; ID90 (Mustela putorius furo [3]): 0.2 mg/kg; bioavailability [5]: 16%; half-life [6]: 2.7 h; bioavailability [7]: 79%; half-life [8]: 1.7 h
COc1ccc(OC(F)(F)F)cc1C1=CC2(CCCNC2c2ccccc2)OC1 (stereo not given) | 0.35 | 0.2 | 
COc1ccccc1[C@H]1COC2(CCCNC2c2ccccc2)C1 (stereo not given in full) | 6.5 |  | 
COc1ccc(OC(F)(F)F)cc1[C@H]1COC2(CCCN(Cc3nc[nH]n3)C2c2ccccc2)C1 (stereo not given in full) | 0.89 |  | Inhibition (Gerbillinae [4]): 45%
COc1ccc(-n2nnnc2C(F)(F)F)cc1[C@H]1COC2(CCCN(Cc3c[nH]cn3)C2c2ccccc2)C1 (stereo not given in full) | 0.11 | 0.5 | 
